Measured values taken from patent US20170073337A1, “DIHYDROTHIAZINE AND DIHYDROOXAZINE DERIVATIVES HAVING BACE1 INHIBITORY ACTIVITY” (Shionogi & Co., Ltd., priority 2014, published 2017).
Converted amounts (≈) assume the structure as drawn. Where two headings read alike, the source gives them in different places.

Legend:
Solubility test = assay type: physicochemical
How it was run: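 Dissolved concentration determined by LC/MS or SPE/MS (absolute calibration) in diluted filtrates, after 2 μL of 10 mmol/L DMSO stock was added to 198 μL JP 1st or JP 2nd fluid and equilibrated either 1 h with shaking at room temperature or 16 h standing at 25 °C.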

CYP1A2 = target: T1, CYP1A2 (Homo sapiens, UniProt P05177); experiment: CYP inhibition test (CYP1A2); assay type: in vitro ADME; conditions: pooled human liver microsomes; 7-ethoxyresorufin O-deethylation
T1 construct: The commercially available pooled human liver microsomes are used as an enzyme resource; from tissue; host or cells: pooled human liver microsomes
T1 sequence (P05177 1-516): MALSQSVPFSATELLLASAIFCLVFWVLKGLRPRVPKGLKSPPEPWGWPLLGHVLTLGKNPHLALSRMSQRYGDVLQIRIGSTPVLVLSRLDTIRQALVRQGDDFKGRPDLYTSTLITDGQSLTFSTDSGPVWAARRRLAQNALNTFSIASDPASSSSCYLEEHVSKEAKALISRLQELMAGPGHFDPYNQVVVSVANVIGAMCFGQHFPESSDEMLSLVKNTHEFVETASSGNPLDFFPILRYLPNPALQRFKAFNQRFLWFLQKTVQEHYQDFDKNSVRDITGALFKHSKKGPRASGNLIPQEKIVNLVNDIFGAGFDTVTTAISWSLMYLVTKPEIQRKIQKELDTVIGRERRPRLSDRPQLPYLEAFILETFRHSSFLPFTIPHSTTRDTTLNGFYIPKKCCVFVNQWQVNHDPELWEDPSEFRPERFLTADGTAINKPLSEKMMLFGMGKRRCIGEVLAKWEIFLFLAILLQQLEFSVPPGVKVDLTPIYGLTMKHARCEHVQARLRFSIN
How it was run: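 Inhibition of CYP1A2 was measured in commercially available pooled human liver microsomes (0.2 mg protein/mL) using 7-ethoxyresorufin O-deethylation with 0.5 μmol/L ethoxyresorufin. Test compound at 1, 5, 10, 20 μmol/L in […] Hepes buffer was incubated at 37° C. after NADPH addition; methanol/acetonitrile=1/1 (v/v) stopped the reaction, and resorufin was read fluorescently.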

Metabolic stability test = assay type: in vitro ADME; conditions: human liver microsomes, 37° C., 30 minutes, NADPH
How it was run: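 Parent compound was measured by LC/MS/MS or SPE/MS after a methanol/acetonitrile quench and reported as % remaining, with the 0 min sample set to 100%. Incubations ran 30 min at 37 °C in pH 7.4 Tris buffer containing pooled human liver microsomes at 0.5 mg protein/mL and 1 mmol/L NADPH.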

[1] = target: T2, human ether-a-go-go related gene (hERG) channel (Homo sapiens, UniProt Q12809); experiment: hERG test; assay type: cell-based; conditions: % inhibition of IKr tail peak current at 3 uM; CHO cells expressing hERG
T2 construct: expressed in transfected cells; host or cells: CHO cells
T2 sequence (Q12809 whole entry): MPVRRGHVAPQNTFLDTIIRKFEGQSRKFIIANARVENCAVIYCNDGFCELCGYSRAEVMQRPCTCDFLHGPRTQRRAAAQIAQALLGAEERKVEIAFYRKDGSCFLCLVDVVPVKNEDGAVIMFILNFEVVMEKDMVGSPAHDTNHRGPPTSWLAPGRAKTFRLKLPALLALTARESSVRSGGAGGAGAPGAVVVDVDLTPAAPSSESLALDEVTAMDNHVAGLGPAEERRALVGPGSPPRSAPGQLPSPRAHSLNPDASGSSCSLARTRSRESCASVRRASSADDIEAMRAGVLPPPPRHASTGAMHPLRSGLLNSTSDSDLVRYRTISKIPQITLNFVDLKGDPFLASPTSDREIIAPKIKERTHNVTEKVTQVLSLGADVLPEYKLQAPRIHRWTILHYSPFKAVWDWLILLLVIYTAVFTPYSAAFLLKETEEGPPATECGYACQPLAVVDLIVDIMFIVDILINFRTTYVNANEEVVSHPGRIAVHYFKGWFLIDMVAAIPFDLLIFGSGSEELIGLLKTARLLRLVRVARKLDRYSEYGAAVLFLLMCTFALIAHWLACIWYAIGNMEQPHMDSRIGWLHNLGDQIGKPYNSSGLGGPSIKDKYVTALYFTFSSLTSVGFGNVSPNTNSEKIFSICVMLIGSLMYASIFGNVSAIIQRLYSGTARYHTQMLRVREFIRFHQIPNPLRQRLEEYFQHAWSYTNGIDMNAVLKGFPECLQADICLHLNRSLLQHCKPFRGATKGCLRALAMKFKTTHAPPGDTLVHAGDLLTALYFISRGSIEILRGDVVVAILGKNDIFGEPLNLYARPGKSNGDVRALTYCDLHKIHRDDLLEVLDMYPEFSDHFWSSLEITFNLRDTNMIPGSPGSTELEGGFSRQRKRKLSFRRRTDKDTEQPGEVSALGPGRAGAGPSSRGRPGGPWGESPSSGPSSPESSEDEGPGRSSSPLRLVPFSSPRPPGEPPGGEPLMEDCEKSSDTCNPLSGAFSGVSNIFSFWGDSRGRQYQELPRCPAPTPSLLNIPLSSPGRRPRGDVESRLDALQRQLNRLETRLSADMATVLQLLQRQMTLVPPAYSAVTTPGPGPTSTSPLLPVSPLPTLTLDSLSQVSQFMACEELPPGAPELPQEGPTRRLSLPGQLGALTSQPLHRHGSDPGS
How it was run: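 IKr was recorded from hERG-expressing CHO cells by automated whole-cell patch clamp at a holding potential of −80 mV. A −50 mV leak step was followed by a 2 s depolarization to +20 mV and a 2 s repolarization to −50 mV, when current was measured.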

CYP3A4 = target: T3, CYP3A4 (Homo sapiens, UniProt P08684); experiment: CYP inhibition test (CYP3A4); assay type: in vitro ADME; conditions: pooled human liver microsomes; terfenadine hydroxylation
T3 construct: The commercially available pooled human liver microsomes are used as an enzyme resource; from tissue; host or cells: pooled human liver microsomes
T3 sequence (P08684 whole entry): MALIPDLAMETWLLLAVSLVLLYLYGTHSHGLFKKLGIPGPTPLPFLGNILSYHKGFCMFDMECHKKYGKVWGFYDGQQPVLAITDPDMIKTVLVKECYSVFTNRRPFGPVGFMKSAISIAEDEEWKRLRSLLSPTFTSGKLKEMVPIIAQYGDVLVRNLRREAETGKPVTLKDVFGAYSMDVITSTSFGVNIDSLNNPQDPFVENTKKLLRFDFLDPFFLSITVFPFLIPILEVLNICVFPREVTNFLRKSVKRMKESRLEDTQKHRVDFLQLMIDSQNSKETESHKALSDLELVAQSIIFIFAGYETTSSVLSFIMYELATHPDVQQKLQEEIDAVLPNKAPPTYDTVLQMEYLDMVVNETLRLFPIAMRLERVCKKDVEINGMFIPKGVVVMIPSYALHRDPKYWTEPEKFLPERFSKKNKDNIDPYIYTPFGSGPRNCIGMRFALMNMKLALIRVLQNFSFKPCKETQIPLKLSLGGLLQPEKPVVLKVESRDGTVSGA
How it was run: (§1)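 Pooled human liver microsomes (0.2 mg protein/mL) were incubated at 37 °C with NADPH, compound at 1, 5, 10, 20 μmol/L and marker substrates: tolbutamide 100 μmol/L (2C9), S-mephenytoin 50 μmol/L (2C19), dextromethorphan 5 μmol/L (2D6), terfenadine 1 μmol/L (3A4). Metabolites were measured by LC/MS/MS; IC50 came from logistic fitting against DMSO control.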

CYP2C19 = target: T4, CYP2C19 (Homo sapiens, UniProt P33261); experiment: CYP inhibition test (CYP2C19); assay type: in vitro ADME; conditions: pooled human liver microsomes; mephenytoin 4′-hydroxylation
T4 construct: The commercially available pooled human liver microsomes are used as an enzyme resource; from tissue; host or cells: pooled human liver microsomes
T4 sequence (P33261 whole entry): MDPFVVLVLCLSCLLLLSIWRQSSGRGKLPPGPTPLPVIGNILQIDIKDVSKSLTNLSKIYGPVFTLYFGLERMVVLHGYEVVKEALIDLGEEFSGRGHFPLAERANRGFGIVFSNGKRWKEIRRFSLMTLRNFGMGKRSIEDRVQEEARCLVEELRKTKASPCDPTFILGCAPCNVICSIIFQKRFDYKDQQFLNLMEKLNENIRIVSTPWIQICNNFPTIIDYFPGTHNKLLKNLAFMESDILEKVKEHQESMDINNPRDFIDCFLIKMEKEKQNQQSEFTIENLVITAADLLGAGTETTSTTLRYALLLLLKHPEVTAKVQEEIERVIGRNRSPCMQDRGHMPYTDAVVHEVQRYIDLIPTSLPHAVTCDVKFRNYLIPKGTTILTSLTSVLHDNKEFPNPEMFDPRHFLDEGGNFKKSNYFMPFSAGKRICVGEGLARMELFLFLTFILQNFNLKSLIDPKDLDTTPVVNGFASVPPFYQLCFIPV
How it was run: as §1

[2] = JP 1st fluid, 25 °C, pH 1.2, simulated gastric fluid, kinetic from dmso stock, read-out: JP1
[3] = JP 2nd fluid A, 25 °C, pH 6.8, aqueous buffer, kinetic from dmso stock, read-out: JP2_μM
[4] = JP 1st fluid, pH 1.2, simulated gastric fluid, kinetic from dmso stock, read-out: JP1
[5] = solubility in JP 2nd fluid B, 1% DMSO, *2: shaken for 1 hour at room temperature, read-out: JP2_μM
[6] = JP 2nd fluid B, pH 6.8, aqueous buffer, kinetic from dmso stock, read-out: JP2_μM

| SMILES | solubility kinetic at 16 h (Solubility test; [2]) | solubility kinetic at 16 h (Solubility test; [3]) | IC50 (CYP1A2) | remaining % (Metabolic stability test) | hERG_3 uM_% [1] | IC50 (CYP3A4) | IC50 (CYP2C19) | solubility kinetic at 1 h (Solubility test; [4]) | solubility kinetic at 1 h (Solubility test; JP 2nd fluid A, pH 6.8, aqueous buffer, kinetic from dmso stock, read-out: JP2_μM) | solubility kinetic at 16 h (Solubility test; [5]) | solubility kinetic at 1 h (Solubility test; [6]) |
| --- | --- | --- | --- | --- | --- | --- | --- | --- | --- | --- | --- |
| C[C@H]1SC(N)=N[C@](C)(c2nc(NC(=O)c3ccc(F)cn3)ccc2F)[C@H]1F [Compound I-2] | 23.3 µM (≈ 9.21 µg/mL) | > 50 µM | ≥ 20 µM | 88% | 38.7% | ≥ 20 µM | ≥ 20 µM | – | – | – | – |
| C[C@H]1SC(N)=N[C@](C)(c2nc(NC(=O)c3cnc(OCF)cn3)ccc2F)[C@H]1F [Compound I-3] | > 50 µM | > 50 µM | ≥ 20 µM | 81.4% | 45.5% | ≥ 20 µM | ≥ 20 µM | – | – | – | – |
| C[C@]1(c2cc(NC(=O)c3ccc(F)cn3)ccc2F)N=C(N)O[C@H](CF)[C@@H]1OCC(F)(F)F [Compound I-11] | 42.7 µM (≈ 20.3 µg/mL) | > 50 µM | ≥ 20 µM | 104% | 42.5% | ≥ 20 µM | ≥ 20 µM | – | – | – | – |
| C[C@]1(c2cc(NC(=O)c3cnc(OCF)cn3)ccc2F)N=C(N)O[C@H](CF)[C@@H]1OCC(F)(F)F [Compound I-12] | 36.1 µM (≈ 18.3 µg/mL) | > 50 µM | ≥ 20 µM | 97.8% | 35.5% | ≥ 20 µM | ≥ 20 µM | – | – | – | – |
| C[C@H](F)[C@H]1OC(N)=N[C@](C)(c2cc(NC(=O)c3ccc(C#N)cn3)ccc2F)[C@H]1F [Compound I-13] | 39.6 µM (≈ 16.5 µg/mL) | > 50 µM | ≥ 20 µM | 101% | 52.8% | ≥ 20 µM | ≥ 20 µM | – | – | – | – |
| C[C@@H](F)[C@H]1OC(N)=N[C@](C)(c2cc(NC(=O)c3ccc(C#N)cn3)ccc2F)[C@H]1F [Compound I-15] | – | – | ≥ 20 µM | 104% | 57% | ≥ 20 µM | ≥ 20 µM | 31.9 µM (≈ 13.3 µg/mL) | > 50 µM | – | – |
| CO[C@H]1[C@@H](CF)OC(N)=N[C@]1(C)c1cc(NC(=O)c2ccc(C#N)cn2)ccc1Cl [Compound I-18] | 36 µM (≈ 15.5 µg/mL) | > 50 µM | ≥ 20 µM | 71.4% | 44.8% | ≥ 20 µM | ≥ 20 µM | – | – | – | – |
| CO[C@H]1[C@@H](CF)OC(N)=N[C@]1(C)c1cc(NC(=O)c2cnc(OCF)cn2)ccc1Cl [Compound I-19] | 37.1 µM (≈ 16.9 µg/mL) | > 50 µM | ≥ 20 µM | 69.9% | 18.8% | ≥ 20 µM | ≥ 20 µM | – | – | – | – |
| CO[C@H]1[C@@H](CF)OC(N)=N[C@]1(C)c1cc(NC(=O)c2ccc(F)cn2)ccc1Cl [Compound I-20] | 38.9 µM (≈ 16.5 µg/mL) | > 50 µM | ≥ 20 µM | 75.4% | 30.4% | ≥ 20 µM | ≥ 20 µM | – | – | – | – |
| CO[C@H]1[C@@H](CF)OC(N)=N[C@]1(C)c1cc(NC(=O)c2cnc(OCF)cn2)ccc1F [Compound I-24] | 38.8 µM (≈ 17 µg/mL) | > 50 µM | ≥ 20 µM | 95.5% | 6.7% | ≥ 20 µM | ≥ 20 µM | – | – | – | – |
| CO[C@H]1[C@@H](CF)OC(N)=N[C@]1(C)c1cc(NC(=O)c2ccc(F)cn2)ccc1F [Compound I-25] | 46.7 µM (≈ 19.1 µg/mL) | > 50 µM | ≥ 20 µM | 89.1% | 41.9% | ≥ 20 µM | ≥ 20 µM | – | – | – | – |
| C[C@@H]1[C@@H](C(F)(F)F)OC(N)=N[C@]1(C)c1cc(NC(=O)c2ccc(C#N)cn2)ccc1F [Compound I-27] | 39.7 µM (≈ 17.3 µg/mL) | > 50 µM | ≥ 20 µM | 84.7% | 28.8% | ≥ 20 µM | ≥ 20 µM | – | – | – | – |
| C[C@H]1[C@H](C(F)(F)F)OC(N)=N[C@]1(C)c1cc(NC(=O)c2ccc(C#N)cn2)ccc1F [Compound I-29] | 35 µM (≈ 15.2 µg/mL) | > 50 µM | ≥ 10 µM | 98.2% | 45.4% | ≥ 20 µM | ≥ 20 µM | – | – | – | – |
| C[C@H]1[C@@H](C(F)F)OC(N)=N[C@]1(C)c1cc(NC(=O)c2ccc(C#N)cn2)ccc1F [Compound I-31] | 38.8 µM (≈ 16.2 µg/mL) | > 50 µM | – | 85% | 27.4% | ≥ 20 µM | ≥ 20 µM | – | – | – | – |
| C[C@H]1SC(N)=N[C@](C)(c2cc(NC(=O)c3ncc(C#N)cc3Cl)ccc2F)[C@H]1F [Compound I-64] | – | – | – | 80.3% | 41.3% | ≥ 20 µM | ≥ 20 µM | > 50 µM | – | >50 µM | – |
| C[C@H]1SC(N)=N[C@](C)(c2cc(NC(=O)c3cnc(C(F)F)cn3)ccc2F)[C@H]1F [Compound I-65] | – | – | – | 96.5% | 28% | ≥ 20 µM | ≥ 20 µM | > 50 µM | – | >50 µM | – |
| CC[C@H]1SC(N)=N[C@](C)(c2cc(NC(=O)c3ccc(OCF)cn3)ccc2F)[C@H]1F [Compound I-67] | – | – | ≥ 20 µM | 69% | 56.5% | – | ≥ 20 µM | > 50 µM | – | >50 µM | – |
| CC(F)(F)[C@H]1OC(N)=N[C@](C)(c2cc(NC(=O)c3cnc(OCC(F)(F)F)cn3)ccc2F)[C@H]1F [Compound I-75] | – | – | ≥ 20 µM | 85.2% | 21.3% | – | ≥ 20 µM | > 50 µM | – | – | 3 µM (≈ 1.53 µg/mL) |
| CC(F)(F)[C@H]1OC(N)=N[C@](C)(c2cc(NC(=O)c3cnc(OCC(F)F)cn3)ccc2F)[C@H]1F [Compound I-77] | – | – | ≥ 20 µM | 93.1% | 44.1% | – | ≥ 20 µM | > 50 µM | – | – | 11.1 µM (≈ 5.45 µg/mL) |
| C[C@]1(c2cc(NC(=O)c3cnc(OCF)cn3)ccc2F)N=C(N)O[C@H](C(F)(F)C2CC2)[C@@H]1F [Compound I-82] | – | – | ≥ 20 µM | 96.5% | 17.5% | – | ≥ 20 µM | > 50 µM | – | >50 µM | – |
| COc1cnc(C(=O)Nc2ccc(F)c([C@@]3(C)N=C(N)O[C@H](C(F)(F)C4CC4)[C@@H]3F)c2)cn1 [Compound I-83] | – | – | ≥ 20 µM | 55.3% | 18.1% | – | ≥ 20 µM | > 50 µM | – | – | 29.6 µM (≈ 13.8 µg/mL) |
| C[C@H]1SC(N)=N[C@](C)(c2cc(NC(=O)c3cnc(OCC4CC4)cn3)ccc2F)[C@H]1F [Compound I-85] | – | – | ≥ 20 µM | 93.2% | 41.4% | – | ≥ 20 µM | 47.2 µM (≈ 21.1 µg/mL) | – | – | 0.6 µM (≈ 0.269 µg/mL) |
